The text below walks through data of ChEMBL document CHEMBL1201862, “PubChem BioAssay data set” (2004).

Activity calls are given as the source filed them. Where only a bound is given, the exact number is not on record here.

Test [1] has as its target T1, Bcl-2-related protein A1 (Mus musculus, UniProt Q07440).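 Note: confirmatory dose–response counterscreen on Bfl-1, used to check hits from a UBC13 polyubiquitin inhibitor campaign.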
T1 sequence (Q07440 whole entry): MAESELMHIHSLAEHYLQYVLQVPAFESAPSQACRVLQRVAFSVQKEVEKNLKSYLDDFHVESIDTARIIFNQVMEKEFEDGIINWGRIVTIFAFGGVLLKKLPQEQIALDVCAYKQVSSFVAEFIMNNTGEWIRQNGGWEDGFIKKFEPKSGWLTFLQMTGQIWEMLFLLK
The class given is functional.

The target of test [2] is T2, Ubiquitin-conjugating enzyme E2 N (Homo sapiens, UniProt P61088).
T2 sequence (P61088 whole entry): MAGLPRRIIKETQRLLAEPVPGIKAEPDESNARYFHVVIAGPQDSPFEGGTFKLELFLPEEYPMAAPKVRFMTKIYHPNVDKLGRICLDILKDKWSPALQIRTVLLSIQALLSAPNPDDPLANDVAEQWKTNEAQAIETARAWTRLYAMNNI
The class given is functional.

In test [3] the target is T2, Ubiquitin-conjugating enzyme E2 N. The class given is functional. This is another data set of the same source.
Test [4] addresses Cytochrome P450 3A4 (Homo sapiens, UniProt P08684). The note with it: Potency.
The target of test [5] is SUMO-activating enzyme (Homo sapiens, UniProt Q9UBT2). Briefly: SUMOylation inhibitor hit validation, confirmation, SUMOylation inhibitor project, biochemical, AlphaScreen (AID 2018). The class given is functional. In general terms: Alpha assays give light when donor and acceptor beads are brought close together.
Sequence of SUMO-activating enzyme (Q9UBE0 whole entry): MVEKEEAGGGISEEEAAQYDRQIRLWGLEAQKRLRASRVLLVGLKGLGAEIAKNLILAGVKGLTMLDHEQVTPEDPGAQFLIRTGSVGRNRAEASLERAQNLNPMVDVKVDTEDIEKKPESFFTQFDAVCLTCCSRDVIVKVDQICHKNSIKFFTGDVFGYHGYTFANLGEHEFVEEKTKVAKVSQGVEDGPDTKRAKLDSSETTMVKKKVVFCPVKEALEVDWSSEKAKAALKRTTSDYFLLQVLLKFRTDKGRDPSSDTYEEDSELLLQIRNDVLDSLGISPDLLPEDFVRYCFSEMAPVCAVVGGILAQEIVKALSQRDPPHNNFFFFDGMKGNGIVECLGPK
Sequence of SUMO-activating enzyme (Q9UBT2 whole entry): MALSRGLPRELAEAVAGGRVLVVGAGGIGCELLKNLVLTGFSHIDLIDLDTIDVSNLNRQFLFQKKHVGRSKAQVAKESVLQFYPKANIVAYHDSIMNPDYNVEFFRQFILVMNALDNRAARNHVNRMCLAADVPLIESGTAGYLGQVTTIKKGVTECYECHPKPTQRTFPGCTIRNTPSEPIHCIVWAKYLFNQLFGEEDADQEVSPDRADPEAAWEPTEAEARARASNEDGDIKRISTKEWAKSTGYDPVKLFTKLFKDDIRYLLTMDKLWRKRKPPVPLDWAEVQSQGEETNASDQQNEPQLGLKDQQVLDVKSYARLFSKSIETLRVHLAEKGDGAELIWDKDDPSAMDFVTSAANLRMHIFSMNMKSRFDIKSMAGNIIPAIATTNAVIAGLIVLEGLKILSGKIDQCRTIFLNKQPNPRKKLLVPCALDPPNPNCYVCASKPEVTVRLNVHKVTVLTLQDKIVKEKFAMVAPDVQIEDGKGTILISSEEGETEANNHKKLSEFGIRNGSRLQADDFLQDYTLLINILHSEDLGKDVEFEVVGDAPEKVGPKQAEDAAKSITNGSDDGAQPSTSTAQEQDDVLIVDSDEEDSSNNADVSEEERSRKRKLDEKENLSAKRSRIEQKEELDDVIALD
The target in test [6] is T3, Coagulation factor XII (Homo sapiens, UniProt P00748).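 Note: activated factor XIIa alpha cleaving a fluorogenic AMC peptide substrate; inhibitor potency from loss of enzyme activity.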
T3 sequence (P00748 whole entry): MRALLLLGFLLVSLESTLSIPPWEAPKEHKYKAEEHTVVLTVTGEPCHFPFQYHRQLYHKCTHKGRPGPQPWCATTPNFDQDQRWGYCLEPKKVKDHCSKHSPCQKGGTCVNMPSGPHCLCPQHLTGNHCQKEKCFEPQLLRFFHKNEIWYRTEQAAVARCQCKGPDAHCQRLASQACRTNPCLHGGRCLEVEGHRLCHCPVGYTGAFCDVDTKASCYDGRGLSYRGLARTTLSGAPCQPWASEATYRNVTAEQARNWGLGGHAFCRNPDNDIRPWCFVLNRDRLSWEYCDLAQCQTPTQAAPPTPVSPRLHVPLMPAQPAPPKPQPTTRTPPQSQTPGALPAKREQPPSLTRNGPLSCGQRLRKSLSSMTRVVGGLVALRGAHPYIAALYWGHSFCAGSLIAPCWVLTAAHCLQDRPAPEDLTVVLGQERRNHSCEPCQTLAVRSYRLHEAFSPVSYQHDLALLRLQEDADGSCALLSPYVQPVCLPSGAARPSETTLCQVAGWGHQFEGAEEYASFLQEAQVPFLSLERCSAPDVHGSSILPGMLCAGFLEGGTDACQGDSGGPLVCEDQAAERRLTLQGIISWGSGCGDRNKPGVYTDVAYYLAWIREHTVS
The test is classed as functional.

The test system of test [7] is HEK293. Kind of test: cells. The note with it: Homo sapiens.
For test [8], the system named is HEK293. Briefly: cells. The note with it: Homo sapiens. The source holds these as a separate data set.
A short description of test [9]: A cytotoxicity screen of small molecule inhibitors of the PhoP region in Salmonella typhi identified in the primary screen. [Related pubchem assays: 1850, 1864, 1985 ]. The class given is functional.
The nature of test [10]: inhibitors of intracellular T. cruzi replication, confirmation, NIH3T3 host cells, beta-gal luminescence (AID 2044).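 Note: intracellular parasites grown in NIH/3T3 mouse fibroblasts as host cells; luminescent beta-galactosidase reporter signal from transgenic T. cruzi replicating inside host cells; inhibitors lower the luminescence signal.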 The test is classed as functional, cell-based.
Test [11] is described as follows: cytotoxicity toward NIH3T3 fibroblasts, dose response, counter-screen, cell-based, ATP luminescence, mouse fibroblasts (AID 2010).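 Note: cells exposed to compound for about 90 hours before reading.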 The class given is functional.
Test [12] in a line: growth suppression of PTEN-null colon cells, dose response, cell-based, HCT116 PTEN knockout (AID 1047).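 Note: HCT116 colon tumor cells with PTEN knocked out; cells exposed to compound for 60 hours before readout; potency for loss of cell viability measured by luminescence.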 The class given is functional.
Test [13] is described as follows: growth suppression of beta-catenin-knockout colon cells, dose response, cell-based, HCT116, human colon tumor (AID 1045).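 Note: HCT116 colon tumor cells with beta catenin knocked out; cells exposed to compound for 60 hours.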 The class given is functional.
The nature of test [14]: Luminescence Cell-Based Dose Retest to Confirm Inhibitors of Cancer Stem Cells. [Related pubchem assays (depositor defined):AID2717, AID2721]. The class given is functional. The note with it: Homo sapiens.
Test [15] has as its system H9c2. Kind of test: cells. The class given is functional, cell-based. The conditions noted are these: Rattus norvegicus, H9c2, Myocardium.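 Note: confirmatory concentration-response retest of ultra-high-throughput screening hits for modulation of myocardial damage; cell death induced by hydrogen peroxide oxidative stress; compound pretreatment for 60 min then peroxide exposure for 2 h; potency is for protecting the cells against peroxide damage rather than for killing them.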
The nature of test [16]: HEp-2 cell cytotoxicity, dose response, cytotoxicity control for RSV inhibitor project, HTS (AID 2410). The conditions noted are these: human respiratory syncytial virus. The test is classed as functional.
Test [17] concerns the target Trypsin (Sus scrofa, UniProt P00761). Briefly: porcine trypsin inhibitors, dose response, selectivity assay for Rce1 protease inhibitor project, biochemical, quenched peptide fluorescence, cherry-pick (AID 488789).
Test [18] addresses Beta-2 adrenergic receptor (Homo sapiens, UniProt P07550). Briefly: beta2AR agonists driving receptor internalization, dose response, cell-based, FAP fluorogen, flow cytometry, cherry pick 1 (AID 588763). The class given is functional. (In general: Flow cytometry measures light scatter and fluorescence of single cells or particles in a stream.)

Sequence of Cytochrome P450 3A4 (P08684 whole entry): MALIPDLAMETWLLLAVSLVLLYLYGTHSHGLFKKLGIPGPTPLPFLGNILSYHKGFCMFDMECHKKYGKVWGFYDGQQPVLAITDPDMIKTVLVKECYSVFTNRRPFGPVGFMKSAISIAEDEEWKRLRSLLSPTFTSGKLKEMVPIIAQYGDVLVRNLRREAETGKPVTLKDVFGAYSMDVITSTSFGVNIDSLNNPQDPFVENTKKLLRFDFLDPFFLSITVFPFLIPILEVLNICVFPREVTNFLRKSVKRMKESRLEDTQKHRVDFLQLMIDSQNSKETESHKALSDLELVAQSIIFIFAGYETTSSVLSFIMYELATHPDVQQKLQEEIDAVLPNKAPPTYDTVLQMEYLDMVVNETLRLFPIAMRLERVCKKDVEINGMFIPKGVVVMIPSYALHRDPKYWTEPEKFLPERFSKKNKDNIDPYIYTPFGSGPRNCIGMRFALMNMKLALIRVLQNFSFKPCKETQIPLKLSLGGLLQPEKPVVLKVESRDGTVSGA
Sequence of Beta-2 adrenergic receptor (P07550 whole entry): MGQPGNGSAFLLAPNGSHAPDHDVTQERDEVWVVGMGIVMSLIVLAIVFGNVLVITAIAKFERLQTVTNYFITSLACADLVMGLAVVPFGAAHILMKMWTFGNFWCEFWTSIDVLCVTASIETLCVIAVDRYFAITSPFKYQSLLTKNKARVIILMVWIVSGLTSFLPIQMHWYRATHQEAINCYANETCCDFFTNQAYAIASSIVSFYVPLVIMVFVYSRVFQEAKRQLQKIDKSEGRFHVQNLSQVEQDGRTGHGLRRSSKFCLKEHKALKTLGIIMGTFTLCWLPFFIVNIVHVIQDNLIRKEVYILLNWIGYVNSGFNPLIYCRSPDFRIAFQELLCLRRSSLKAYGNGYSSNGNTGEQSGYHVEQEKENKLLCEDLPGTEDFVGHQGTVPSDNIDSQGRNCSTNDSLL
Sequence of Trypsin (P00761 whole entry): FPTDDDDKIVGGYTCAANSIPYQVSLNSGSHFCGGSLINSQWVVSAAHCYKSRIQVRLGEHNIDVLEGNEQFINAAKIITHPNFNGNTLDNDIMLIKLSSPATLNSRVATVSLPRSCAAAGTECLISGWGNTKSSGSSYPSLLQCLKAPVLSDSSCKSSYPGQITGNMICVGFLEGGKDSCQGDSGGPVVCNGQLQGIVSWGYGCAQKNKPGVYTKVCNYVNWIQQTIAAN

As to `C#CCOCCOCCOCCNc1nc(N2CCOCC2)nc(N2CCN(C(=O)[C@H](CCCCN)n3cc(CN)nn3)CC2)n1`, the values for the IC50 in test [1], in [2] and in [3] were > 20 µM (inactive), 15.3 µM (active) and > 20 µM (inactive), respectively.
Consider `C=C1CCC2C(CC2(C)C)C(=C)CC/C1=N/O` (stereo not drawn) [5-HYDROXYIMINOISOCARYOPHYLLENE], for which the AC50 in [4] was 31.6 µM (inconclusive).
With `Cc1ccc(/C=N/NC(=O)c2cccc(S(=O)(=O)Nc3cccc(Cl)c3)c2)o1`, the half-maximal inhibitory concentration (IC50) in test [5] is 82.1 µM (active).
Regarding `COC(=O)N1[C@H](C)C=C[C@]1(Cc1ccccc1)C(=O)NCc1ccccn1`, the AC50 in test [4] is 3.98 µM (inconclusive).
As for `Cc1ccc(N(CC(O)CN2C(=O)NC(C)(C)C2=O)S(=O)(=O)c2ccc(C)cc2)cc1` (stereo not drawn), the IC50 in test [6] is > 50 µM (inactive).
Take `Cc1ccc2cc(CN(C(=O)c3cccs3)c3ccccc3)c(O)nc2c1`: in test [6], the IC50 was > 50 µM (inactive).
On to `COc1ccnc2c1c(=O)n(Cc1ccc(Cl)cc1)c(=O)n2C`, for which the IC50 in test [1] was 4.03 µM (active); in [2], 11.7 µM (active); in test [3] it was 8.22 µM (active).
In the same order, the values of `COc1cc(/C=N/NC(=O)CSCc2ccc([N+](=O)[O-])cc2)cc(OC)c1OC` are > 20 µM (inactive), 4.56 µM (active) and 7.06 µM (active).
Turning to `COC(=O)Cc1c(C)nc2nc(-c3ccc(C)cc3)nn2c1O`, the IC50 in [6] is > 50 µM (inactive).
In the case of `CCCCn1c(N)c(C(=O)OCCOC)c2nc3ccccc3nc21`, in test [5], the IC50 was 38 µM (active).
As to `CCCNC(=O)c1ccccc1NC(=O)c1ccccc1N(C)S(=O)(=O)c1ccc(C)cc1`, the EC50 in [7] and in test [8] was > 59.6 µM (inactive) throughout.
`COc1ccc(N(CCCN2C(=O)c3cccc4cccc(c34)C2=O)C(=O)c2cccnc2)cc1`: the results for the EC50 in [9], in test [10] and in [11] were > 50 µM (active), 0.666 µM (active) and > 60 µM (not active), respectively.
As for `CC1CCN(S(=O)(=O)c2ccc3c(c2)C(=NO)c2cc(S(=O)(=O)N4CCC(C)CC4)ccc2-3)CC1`, the EC50 in test [12] is 0.303 µM (active); in test [7], > 59.6 µM (inactive); in test [13], 0.265 µM (active); in test [8], > 59.6 µM (inactive). The concentration at half-maximal activity (AC50) in test [14] is 0.584 µM (active).
As for `CCOC(=O)c1cccc(Nc2nc(-c3cccnc3)nc3ccccc23)c1`, the IC50 in [1] is > 20 µM (inactive); in [2], 14.5 µM (active); in [3], 15.2 µM (active); in test [15], 24 µM (active). The CC50 in test [16] was 14 µM (active).
`COc1ccc(CSc2ccc(-c3nc4ccccn4c3NCc3ccccc3)cc2OC)cc1`: in test [17], the concentration at half-maximal activity (AC50) was 4.45 µM (active). Also, the concentration for a half-maximal effect (EC50) in test [18] was 1.32 µM (active).

As usually defined, the IC50 is the concentration at which inhibition is half-maximal. For orientation: AC50 means the midpoint of the concentration-response curve, whichever way the signal moves. As a reminder, the EC50 is the concentration giving half of the maximal effect. As usually defined, the CC50 is the concentration that lowers cell viability or growth by half.
